In patent US20070179122A1, “Beta-Aminoacid-Derivatives As Factor Xa Inhibitors” (Sanofi-Aventis Deutschland GmbH, priority 2004, published 2007):

biological target: T1, human factor Xa (Homo sapiens, UniProt P00742); experiment: Factor Xa Assay (chromogenic, purified enzyme); assay type: biochemical; details: inhibition constant for inhibition of factor Xa; chromogenic substrate S-2765 140 μM, enzyme 0.5 nM, 25° C., pH 7.8; Ki=IC50/{1+(substrate concentration/Km)}; read-out: Ki(FXa)
T1 construct: 25 μl human factor Xa (Enzyme Research Laboratories, Inc; South Bend, Ind.); purchased Enzyme Research Laboratories, Inc; South Bend, Ind
T1 sequence (P00742 235-488 limits assumed): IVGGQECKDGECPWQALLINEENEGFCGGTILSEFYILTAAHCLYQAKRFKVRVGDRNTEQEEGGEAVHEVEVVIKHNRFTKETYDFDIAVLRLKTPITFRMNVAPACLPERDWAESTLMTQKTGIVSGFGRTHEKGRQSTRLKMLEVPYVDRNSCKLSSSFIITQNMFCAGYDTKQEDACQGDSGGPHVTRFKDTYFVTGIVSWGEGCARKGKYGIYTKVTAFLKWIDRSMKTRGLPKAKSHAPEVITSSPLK
T1 sequence (P00742 41-179 partner limits assumed): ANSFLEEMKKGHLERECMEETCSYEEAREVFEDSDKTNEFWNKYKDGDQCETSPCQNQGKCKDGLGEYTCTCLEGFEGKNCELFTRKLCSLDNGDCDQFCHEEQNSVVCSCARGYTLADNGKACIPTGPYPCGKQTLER
Source text: The ability of the compounds of the formula I to inhibit factor Xa or factor VIIa or other enzymes like thrombin, plasmin, or trypsin can be assessed by determining the concentration of the compound of the formula I that inhibits enzyme activity by 50%, i. e. the IC50 value, which was related to the inhibition constant Ki. Purified enzymes were used in chromogenic assays. […] For calculating the inhibition constant Ki, the IC50 value was corrected for competition with substrate using the formula Ki=IC50/{1+(substrate concentration/Km)} wherein Km is the Michaelis-Menten constant (Chen and Prusoff, Biochem. Pharmacol. 22 (1973) 3099-3108; I. H. Segal, Enzyme Kinetics, 1975, John Wiley & Sons, New York, 100-125; which were incorporated herein by reference). a) Factor Xa Assay
The IC50 was determined by combining in appropriate wells of a Costar half-area microtiter plate 25 μl human factor Xa (Enzyme Research Laboratories, Inc.; South Bend, Ind.) in TBS-PEG; 40 μl 10% (v/v) DMSO in TBS-PEG (uninhibited control) or various concentrations of the compound to be tested diluted in 10% (v/v) DMSO in TBS-PEG; and substrate S-2765 (N(α)-benzyloxycarbonyl-D-Arg-Gly-L-Arg-p-nitroanilide; Kabi Pharmacia, Inc.; Franklin, Ohio) in TBS-PEG.
The assay was performed by pre-incubating the compound of formula I plus enzyme for 10 min. Then the assay was initiated by adding substrate to obtain a final volume of 100 μl. The initial velocity of chromogenic substrate hydrolysis was measured by the change in absorbance at 405 nm using a Bio-tek Instruments kinetic plate reader (Ceres UV900HDi) at 25° C. during the linear portion of the time course (usually 1.5 min after addition of substrate). The enzyme concentration was 0.5 nM and substrate concentration was 140 μM.

| SMILES | Ki [µM] |
| --- | --- |
| O=C(CCNC(=O)c1ccc(Cl)s1)Nc1ccc(-n2ccncc2=O)cc1 [Example 2, 5-Chloro-thiophene-2-carboxylic acid {2-[4-(2-oxo-2H-pyrazin-1-yl)-phenylcarbaminyl]-ethyl}-amide] | 0.007 |
| O=C(CCNC(=O)c1ccc(Cl)cc1)Nc1ccc(N2CCOCC2=O)cc1 [Example 3, 4-Chloro-N-{2-[4-(3-oxo-morpholin-4-yl)-phenylcarbaminyl]-ethyl}-benzamide] | 1.39 |
| O=C(NCCC(=O)N1CCc2cc(-n3ccncc3=O)ccc21)c1ccc(Cl)s1 [Example 4, 5-Chloro-thiophene-2-carboxylic acid {3-oxo-3-[5-(2-oxo-2H-pyrazin-1-yl)-2,3-dihydro-indol-1-yl]-propyl}-amide] | 0.04 |
| O=C(NCCC(=O)n1ccc2cc(-n3ccncc3=O)ccc21)c1ccc(Cl)s1 [Example 5, 5-Chloro-thiophene-2-carboxylic acid {3-oxo-3-[5-(2-oxo-2H-pyrazin-1-yl)-indol-1-yl]-propyl}-amide] | 0.008 |
| O=C(CCNS(=O)(=O)c1ccc(Cl)s1)Nc1ccc(N2CCOCC2=O)cc1 [Example 8, 3-(5-Chloro-thiophene-2-sulfonylamino)-N-[4-(3-oxo-morpholin-4-yl)-phenyl]-propionamide] | 0.375 |
| O=C(CCNC(=O)c1ccc(Cl)s1)Nc1ccc(N2CCOCS2(=O)=O)cc1 [Example 9, 5-Chloro-thiophene-2-carboxylic acid {2-[4-(3,3-dioxo-[1,3,4]oxathiazinan-4-yl)-phenylcarbaminyl]-ethyl}-amide] | 0.03 |
| N=C(N)c1cccc(C(=O)NCCC(=O)Nc2ccc(-n3ccncc3=O)cc2)c1 [Example 12, 3-Carbamimidoyl-N-{2-[4-(2-oxo-2H-pyrazin-1-yl)-phenylcarbaminyl]-ethyl}-benzamide] | 0.1 |
| COC(=O)c1cc(NC(=O)CCNC(=O)c2ccc(Cl)s2)ccc1N1CCOCC1=O [Example 13, 5-{3-[(5-Chloro-thiophene-2-carbonyl)-amino]-propionylamino}-2-(3-oxo-morpholin-4-yl)-benzoic acid methyl ester] | 0.263 |
| O=C(CCNC(=O)c1ccc(Cl)s1)Nc1ccc(N2CCOCC2=O)c(C(=O)O)c1 [Example 14, 5-{3-[(5-Chloro-thiophene-2-carbonyl)-amino]-propionylamino}-2-(3-oxo-morpholin-4-yl)-benzoic acid] | 30 |
| O=C(CCNC(=O)c1ccc(Cl)s1)Nc1ccc(N2CCOCC2=O)nc1 [Example 15, 5-Chloro-thiophene-2-carboxylic acid {2-[6-(3-oxo-morpholin-4-yl)-pyridin-3-ylcarbamoyl]-ethyl}-amide] | 0.194 |
| COC(=O)c1cc(-n2ccccc2=O)ccc1NC(=O)CCNC(=O)c1ccc(Cl)s1 [Example 19, 2-{3-[(5-Chloro-thiophene-2-carbonyl)-amino]-propionylamino}-5-(2-oxo-2H-pyridin-1-yl)-benzoic acid methyl ester] | 0.002 |
| COC(=O)CN(C(=O)CCNC(=O)c1ccc(Cl)s1)c1ccc(N2CCOCC2=O)cc1 [Example 23, {{3-[(5-Chloro-thiophene-2-carbonyl)-amino]-propionyl}-[4-(3-oxo-morpholin-4-yl)-phenyl]-amino}-acetic acid methyl ester] | 0.212 |
| O=C(NCCC(=O)N(CC(F)F)c1ccc(N2CCOCC2=O)cc1)c1ccc(Cl)s1 [Example 25, 5-Chloro-thiophene-2-carboxylic acid (2-{(2,2-difluoro-ethyl)-[4-(3-oxo-morpholin-4-yl)-phenyl]-carbamoyl}-ethyl)-amide] | 0.383 |
| O=C(N[C@H](CNC(=O)c1ccc(Cl)s1)C(=O)Nc1ccc(N2CCOCC2=O)c(C(F)(F)F)c1)OCc1ccccc1 [Example 26, {(R)-2-[(5-Chloro-thiophene-2-carbonyl)-amino]-1-[4-(3-oxo-morpholin-4-yl)-3-trifluoromethyl-phenylcarbaminyl]-ethyl}-carbamic acid benzyl ester] | 0.012 |

More lines, now with the values ahead:

| Ki [µM] | SMILES |
| --- | --- |
| 0.004 | O=C(CCNC(=O)c1ccc(Cl)s1)Nc1ccc(-n2ccncc2=O)cc1F [Example 6, 5-Chloro-thiophene-2-carboxylic acid {2-[2-fluoro-4-(2-oxo-2H-pyrazin-1-yl)-phenylcarbaminyl]-ethyl}-amide] |
| 0.059 | O=C(NC[C@@H](NCC(F)F)C(=O)Nc1ccc(N2CCOCC2=O)c(C(F)(F)F)c1)c1ccc(Cl)s1 [Example 7, 5-Chloro-thiophene-2-carboxylic acid {(R)-2-(2,2-difluoro-ethylamino)-2-[4-(3-oxo-morpholin-4-yl)-3-trifluoromethyl-phenylcarbaminyl]-ethyl}-amide] |
| 0.008 | O=C(NCC(F)(F)C(=O)Nc1ccc(-n2ccncc2=O)cc1)c1ccc(Cl)s1 [Example 10, 5-Chloro-thiophene-2-carboxylic acid {2,2-difluoro-2-[4-(2-oxo-2H-pyrazin-1-yl)-phenylcarbaminyl]-ethyl}-amide] |
| 0.018 | O=C(NCC(F)(F)C(=O)Nc1ccc(N2CCOCC2=O)cc1)c1ccc(Cl)s1 [Example 11, 5-Chloro-thiophene-2-carboxylic acid {2,2-difluoro-2-[4-(3-oxo-morpholin-4-yl)-phenylcarbaminyl]-ethyl}-amide] |
| 0.015 | O=C(CCNC(=O)c1ccc(Cl)s1)Nc1ccc(N2CCOCC2=O)c(F)c1 [Example 16, 5-Chloro-thiophene-2-carboxylic acid {2-[3-fluoro-4-(3-oxo-morpholin-4-yl)-phenylcarbaminyl]-ethyl}-amide] |
| 0.003 | COC(=O)c1cc(N2CCOCC2=O)ccc1NC(=O)CCNC(=O)c1ccc(Cl)s1 [Example 18, 2-{3-[(5-Chloro-thiophene-2-carbonyl)-amino]-propionylamino}-5-(3-oxo-morpholin-4-yl)-benzoic acid methyl ester] |
| 0.011 | O=C(CCNC(=O)c1ccc(Cl)s1)Nc1ccc(-n2ccccc2=O)cc1C(=O)O [Example 20, 2-{3-[(5-Chloro-thiophene-2-carbonyl)-amino]-propionylamino}-5-(2-oxo-2H-pyridin-1-yl)-benzoic acid] |
| 0.26 | O=C(CCNC(=O)c1ccc(Cl)s1)Nc1ccc(-n2ccc(=O)cc2)cc1 [Example 21, 5-Chloro-thiophene-2-carboxylic acid {2-[4-(4-oxo-4H-pyridin-1-yl)-phenylcarbaminyl]-ethyl}-amide] |
| 4 | O=C(CCNC(=O)c1ccc(Cl)cc1)Nc1ccc(-n2ccc(=O)cc2)cc1 [Example 22, 4-Chloro-N-{2-[4-(4-oxo-4H-pyridin-1-yl)-phenylcarbaminyl]-ethyl}-benzamide] |
| 0.228 | O=C(O)CN(C(=O)CCNC(=O)c1ccc(Cl)s1)c1ccc(N2CCOCC2=O)cc1 [Example 24, {{3-[(5-Chloro-thiophene-2-carbonyl)-amino]-propionyl}-[4-(3-oxo-morpholin-4-yl)-phenyl]-amino}-acetic acid] |
